“Also recorded” adds a separate entry of the source.
Assays:
[1] = test system: PSMA-expressing cancer xenografts (LNCaP); assay: Biodistribution of ^177Lu-labeled HTK03041; type: in vivo, mice; details: for Tissue (% ID/g): Salivary / Tissue (% ID/g): Seminal / Tissue (% ID/g): Spleen / Tissue (% ID/g): Stomach / Tissue (% ID/g): Tail / Tissue (% ID/g): Testes / Tissue (% ID/g): Thyroid / Tissue (% ID/g): Tumor / Tissue (% ID/g): Urine / tumor-to-background contrast ratio Tumor: Blood / tumor-to-background contrast ratio Tumor: Muscle / tumor-to-background contrast ratio Tumor: kidney / Tissue (% ID/g): Adrenal glands / Tissue (% ID/g): Blood / Tissue (% ID/g): Bone / Tissue (% ID/g): Brain / Tissue (% ID/g): Fat / Tissue (% ID/g): Heart / Tissue (% ID/g): Intestine / Tissue (% ID/g): Kidneys / Tissue (% ID/g): Lacrimal / Tissue (% ID/g): Liver / Tissue (% ID/g): Lungs / Tissue (% ID/g): Muscle / Tissue (% ID/g): Pancreas: ^177Lu
Description: (§1) Imaging and biodistribution experiments were performed using NODSCID 1L2RγKO male mice. Mice were anesthetized by inhalation with 2% isoflurane in oxygen, and implanted subcutaneously with 1×10^7 LNCaP cells behind left shoulder. Mice were imaged or used in biodistribution studies when the tumor grew up to reach 5-8 mm in diameter during 5-6 weeks.
(§2) SPECT/CT imaging experiments were conducted using the MlLabs (Utrecht, the Netherlands) U-SPECT-II/CT scanner. Each tumor bearing mouse was injected with ˜37 MBq of ^177Lu-labeled HTK03041 through the tail vein under anesthesia (2% isoflurane in oxygen). The mice were allowed to recover and roam freely in their cage and imaged at 1, 4, 24, 72 and 120 hours after injection. At each time point, the mice were sedated again and positioned in the scanner. A 5-min CT scan was conducted first for anatomical reference with a voltage setting at 60 kV and current at 615 μA followed by a 60-min static emission scan acquired in list mode using an ultra-high resolution multi-pinhole rat-mouse (1 mm pinhole size) collimator. Data were reconstructed using the U-SPECT II software with a 20% window width on three energy windows. The photopeak window was centered at 208 keV, with lower scatter and upper scatter windows centered at 170 and 255 keV, respectively. Reconstruction parameters used maximum-likelihood expectation maximization (3 iterations), pixel-based ordered subset expectation maximization (16 subsets), and a post-processing filter (Gaussian blurring) of 0.5 mm. Images were decay corrected to injection time in PMOD (PMOD Technologies, Switzerland) then converted to DICOM for qualitative visualization in Inveon Research Workplace (Siemens Medical Solutions USA, Inc.).
For biodistribution studies, the mice were injected with the radiotracer as described above. At predetermined time points (1 or 3 h for ^68Ga studies; 1, 4, 24, 72, or 120 h for ^177Lu studies), the mice was anesthetized with 2% isoflurane inhalation, and euthanized by CO2 inhalation. Blood was withdrawn immediately from the heart, and the organs/tissues of interest were collected. The collected organs/tissues were weighed and counted using a Perkin Elmer (Waltham, MA) Wizard2 2480 gamma counter. The uptake in each organ/tissue was normalized to the injected dose using a standard curve, and expressed as the percentage of the injected dose per gram of tissue (% ID/g).

LNCaP tumors = assay: SPECT/CT imaging of ^177Lu-labeled HTK03041; type: in vivo, mice; details: 1 h to 120 h post-injection, FIG. 4
Description: as §1
as §2, with “Reconstruction parameters used maximum-likelihood expectation maximization (3 iterations), pixel-based ordered subset expectation maximization (16 subsets), and a post-processing filter (Gaussian blurring) of 0.5 mm. Images were decay corrected to injection time in PMOD (PMOD Technologies, Switzerland) then converted to DICOM for qualitative visualization in Inveon Research Workplace (Siemens Medical Solutions USA, Inc.).” left out

O=C([O-])CN1CCN(CC(=O)[O-])CCN(CC(=O)NC[C@H]2CC[C@H](C(=O)N[C@@H](Cc3c4ccccc4cc4ccccc34)C(=O)NCCCC[C@H](NC(=O)N[C@@H](CCC(=O)O)C(=O)O)C(=O)O)CC2)CCN(CC(=O)[O-])CC1.[177Lu+3] [^177Lu-HTK03041]
Tissue (% ID/g): Salivary ([1]; 24 h post-injection): 0.40 ± 0.06 % ID/g | Tissue (% ID/g): Seminal ([1]; 24 h post-injection): 0.23 ± 0.13 % ID/g | Tissue (% ID/g): Spleen ([1]; 24 h post-injection): 0.59 ± 0.19 % ID/g | Tissue (% ID/g): Stomach ([1]; 24 h post-injection): 0.18 ± 0.04 % ID/g | Tissue (% ID/g): Tail ([1]; 24 h post-injection): 0.34 ± 0.17 % ID/g | Tissue (% ID/g): Testes ([1]; 24 h post-injection): 0.40 ± 0.08 % ID/g | Tissue (% ID/g): Thyroid ([1]; 24 h post-injection): 0.47 ± 0.09 % ID/g | Tissue (% ID/g): Tumor ([1]; 24 h post-injection): 19.8 ± 6.13 % ID/g | Tissue (% ID/g): Urine ([1]; 24 h post-injection): 23.8 ± 8.50 % ID/g | tumor-to-background contrast ratio Tumor: Blood ([1]; 24 h post-injection): 282 ± 82.6 | tumor-to-background contrast ratio Tumor: Muscle ([1]; 24 h post-injection): 142 ± 30.1 | tumor-to-background contrast ratio Tumor: kidney ([1]; 24 h post-injection): 0.97 ± 0.15 | Tissue (% ID/g): Adrenal glands ([1]; 72 h post-injection): 0.12 ± 0.05 % ID/g | Tissue (% ID/g): Blood ([1]; 72 h post-injection): 0.02 ± 0.00 % ID/g | Tissue (% ID/g): Bone ([1]; 72 h post-injection): 0.02 ± 0.01 % ID/g | Tissue (% ID/g): Brain ([1]; 72 h post-injection): 0.01 ± 0.00 % ID/g | Tissue (% ID/g): Fat ([1]; 72 h post-injection): 0.03 ± 0.01 % ID/g | Tissue (% ID/g): Heart ([1]; 72 h post-injection): 0.07 ± 0.02 % ID/g | Tissue (% ID/g): Intestine ([1]; 72 h post-injection): 0.13 ± 0.04 % ID/g | Tissue (% ID/g): Kidneys ([1]; 72 h post-injection): 1.27 ± 0.58 % ID/g | Tissue (% ID/g): Lacrimal ([1]; 72 h post-injection): 0.01 ± 0.01 % ID/g | Tissue (% ID/g): Liver ([1]; 72 h post-injection): 0.13 ± 0.05 % ID/g | Tissue (% ID/g): Lungs ([1]; 72 h post-injection): 0.14 ± 0.04 % ID/g | Tissue (% ID/g): Muscle ([1]; 72 h post-injection): 0.02 ± 0.01 % ID/g | Tissue (% ID/g): Pancreas ([1]; 72 h post-injection): 0.05 ± 0.02 % ID/g | Tissue (% ID/g): Salivary ([1]; 72 h post-injection): 0.08 ± 0.03 % ID/g | Tissue (% ID/g): Seminal ([1]; 72 h post-injection): 0.03 ± 0.01 % ID/g | Tissue (% ID/g): Spleen ([1]; 72 h post-injection): 0.12 ± 0.04 % ID/g | Tissue (% ID/g): Stomach ([1]; 72 h post-injection): 0.19 ± 0.09 % ID/g | Tissue (% ID/g): Tail ([1]; 72 h post-injection): 0.13 ± 0.08 % ID/g | Tissue (% ID/g): Testes ([1]; 72 h post-injection): 0.08 ± 0.02 % ID/g | Tissue (% ID/g): Thyroid ([1]; 72 h post-injection): 0.09 ± 0.02 % ID/g | Tissue (% ID/g): Tumor ([1]; 72 h post-injection): 15.2 ± 4.72 % ID/g | Tissue (% ID/g): Urine ([1]; 72 h post-injection): 0.67 ± 0.22 % ID/g | tumor-to-background contrast ratio Tumor: Blood ([1]; 72 h post-injection): 805 ± 164 | tumor-to-background contrast ratio Tumor: Muscle ([1]; 72 h post-injection): 647 ± 119 | tumor-to-background contrast ratio Tumor: kidney ([1]; 72 h post-injection): 13.1 ± 3.75 | Tissue (% ID/g): Adrenal glands ([1]; 120 h post-injection): 0.11 ± 0.11 % ID/g | Tissue (% ID/g): Blood ([1]; 120 h post-injection): 0.01 ± 0.01 % ID/g | Tissue (% ID/g): Bone ([1]; 120 h post-injection): 0.02 ± 0.00 % ID/g | Tissue (% ID/g): Brain ([1]; 120 h post-injection): 0.01 ± 0.00 % ID/g | Tissue (% ID/g): Fat ([1]; 120 h post-injection): 0.05 ± 0.09 % ID/g | Tissue (% ID/g): Heart ([1]; 120 h post-injection): 0.06 ± 0.02 % ID/g | Tissue (% ID/g): Intestine ([1]; 120 h post-injection): 0.06 ± 0.03 % ID/g | Tissue (% ID/g): Kidneys ([1]; 120 h post-injection): 1.06 ± 0.74 % ID/g | Tissue (% ID/g): Lacrimal ([1]; 120 h post-injection): 0.01 ± 0.01 % ID/g | Tissue (% ID/g): Liver ([1]; 120 h post-injection): 0.13 ± 0.04 % ID/g | Tissue (% ID/g): Lungs ([1]; 120 h post-injection): 0.10 ± 0.04 % ID/g | Tissue (% ID/g): Muscle ([1]; 120 h post-injection): 0.02 ± 0.02 % ID/g | Tissue (% ID/g): Pancreas ([1]; 120 h post-injection): 0.04 ± 0.01 % ID/g | Tissue (% ID/g): Salivary ([1]; 120 h post-injection): 0.06 ± 0.04 % ID/g | Tissue (% ID/g): Seminal ([1]; 120 h post-injection): 0.02 ± 0.01 % ID/g | Tissue (% ID/g): Spleen ([1]; 120 h post-injection): 0.22 ± 0.11 % ID/g | Tissue (% ID/g): Stomach ([1]; 120 h post-injection): 0.05 ± 0.04 % ID/g | Tissue (% ID/g): Tail ([1]; 120 h post-injection): 0.11 ± 0.07 % ID/g | Tissue (% ID/g): Testes ([1]; 120 h post-injection): 0.06 ± 0.01 % ID/g | Tissue (% ID/g): Thyroid ([1]; 120 h post-injection): 0.08 ± 0.03 % ID/g | Tissue (% ID/g): Tumor ([1]; 120 h post-injection): 22.3 ± 6.90 % ID/g | Tissue (% ID/g): Urine ([1]; 120 h post-injection): 0.29 ± 0.04 % ID/g | tumor-to-background contrast ratio Tumor: Blood ([1]; 120 h post-injection): 1670 ± 272 | tumor-to-background contrast ratio Tumor: Muscle ([1]; 120 h post-injection): 1215 ± 512 | tumor-to-background contrast ratio Tumor: kidney ([1]; 120 h post-injection): 25.4 ± 9.59 | tumor uptake over the investigated time points ([1]; up to 120 h post-injection): remained at the similar level throughout the investigated time points; also recorded: sustained over the course of the study | uptake in background tissues including kidneys in SPECT images (LNCaP tumors): cleared quickly over time | uptake in tumor in SPECT images (LNCaP tumors): sustained over the course the study

From US12472272B2, “Radiolabelled compounds for diagnosis or treatment of prostate-specific membrane antigen- expressing cancer” (PROVINCIAL HEALTH SERVICES AUTHORITY, priority 2019, dated 2025)
